# Results taken from US8192962B2, “Processes for detecting toxic substances” (Daikin Industries, Ltd., priority 2001, dated 2012).
# System: Metabolism protein genes
# Assay: DNA chip mRNA expression in yeast, metabolism protein genes (Table 7)
# Assay type: cell-based, Saccharomyces cerevisiae S288C
# Experimental: Yeast (Saccharomyces cerevisiae S288C (α SUC2mal mel gap2 CUP1)) were incubated at 25° C. on YPD medium (yeast extract 1%, polypepton 2%, glucose 2%). One of toxic chemical substances was added to the cells at logarithmic growth phase, and the cells were further incubated for two hours. Cells were cultured without any chemical substance in the same condition, and were used as control. Concentrations of the chemical substances were defined to inhibit the growth of the yeast but not lead to death.
# After completion of the incubation, the culture was centrifuged to collect the cells. To the cells, sodium acetate buffer (50 mM sodium acetate, 10 mM EDTA, 1% SDS) was added, and the mixture was shaken at 65° C. for five minutes, followed by returning to room temperature, and obtaining the supernatant, of which the procedures were repeated two times. To the supernatant, ½ amount of a solution of phenol/chloroform was added, and the mixture was centrifuged to give a supernatant, which was added with an equal amount of chloroform, and the mixture was centrifuged to give a supernatant. To the supernatant, an equal amount of isopropanol containing 0.3 M sodium acetate was added, and the mixture was allowed to stand at room temperature for 30 minutes, after which the mixture was centrifuged to give a sediment of the whole RNAs. Seventy % ethanol was added to the sediment, and the mixture was again centrifuged to give a sediment, which was then dried and dissolved in water. mRNA was isolated from the whole RNAs as followings. In view of the fact that a poly A chain is attached to the 3′ terminus of mRNA, a polynucleotide having a poly T structure which was immobilized on the surface of latex beads was used to trap the mRNA, and then the mRNA was washed and eluted with spine column (Oligotex-dT30<Super>mRNA Purification Kit, Takara). Reverse transcription of the mRNA was conducted with a reverse transcriptase (Super Script II Reverse Transcriptase; catalogue No. 18064-014, GibcoBRL) using fluorescence-labeled nucleotides to give cDNAs that were introduced with Cy3-dUTP or Cy5-dUTP during the reverse transcription.
# The labeled cDNAs were dissolved in TE buffer (10mM Tris-HCl/1 mM EDTA, pH8.0), and the solution was dropped on the DNA chip containing the whole genes of yeast (DNA Chip Research Inc. Japan) so that the cDNAs were hybridized on the DNA chip at 65° C. for over 12 hours. The fluoresces intensity of the DNA chip was read with a scanner, and the ratio relative to the fluorescence intensity resulting from the absence of chemical substance was estimated as the following, which is shown in Tables 1 to 9: […]
compound,measurement,setting,value
"CCCCCCCCCCCCc1ccc(S(=O)(=O)[O-])cc1.[Na+] [(17), sodium dodecylbenzosulfonate]",The level of expressed mRNA in the presence of chemical substance/The level of expressed mRNA in the absence of chemical substance,yeast gene YJR155W,1.3
same,The level of expressed mRNA in the presence of chemical substance/The level of expressed mRNA in the absence of chemical substance,yeast gene YKL035W,1.0
same,level of expressed mRNA in the presence/in the absence of chemical substance,yeast gene YKL060C,1.2
same,The level of expressed mRNA in the presence of chemical substance/The level of expressed mRNA in the absence of chemical substance,yeast gene YKL091C,1.4
same,The level of expressed mRNA in the presence of chemical substance/The level of expressed mRNA in the absence of chemical substance,yeast gene YKL104C,1.0
same,level of expressed mRNA in the presence/in the absence of chemical substance,yeast gene YKL148C,0.8
same,The level of expressed mRNA in the presence of chemical substance/The level of expressed mRNA in the absence of chemical substance,yeast gene YKL152C,1.1
same,level of expressed mRNA in the presence/in the absence of chemical substance,yeast gene YKL157W,1.2
same,The level of expressed mRNA in the presence of chemical substance/The level of expressed mRNA in the absence of chemical substance,yeast gene YKL213C,1.4
same,The level of expressed mRNA in the presence of chemical substance/The level of expressed mRNA in the absence of chemical substance,yeast gene YKL215C,0.8
same,level of expressed mRNA in the presence/in the absence of chemical substance,yeast gene YKR034W,0.8
same,The level of expressed mRNA in the presence of chemical substance/The level of expressed mRNA in the absence of chemical substance,yeast gene YLL058W,1.4
same,level of expressed mRNA in the presence/in the absence of chemical substance,yeast gene YLR006C,1.6
same,level of expressed mRNA in the presence/in the absence of chemical substance,yeast gene YLR044C,0.9
same,level of expressed mRNA in the presence/in the absence of chemical substance,yeast gene YLR056W,1.1
same,level of expressed mRNA in the presence/in the absence of chemical substance,yeast gene YLR058C,0.8
same,level of expressed mRNA in the presence/in the absence of chemical substance,yeast gene YLR081W,0.7
same,level of expressed mRNA in the presence/in the absence of chemical substance,yeast gene YLR089C,1.2
same,The level of expressed mRNA in the presence of chemical substance/The level of expressed mRNA in the absence of chemical substance,yeast gene YLR180W,0.8
same,The level of expressed mRNA in the presence of chemical substance/The level of expressed mRNA in the absence of chemical substance,yeast gene YLR273C,1.0
same,level of expressed mRNA in the presence/in the absence of chemical substance,yeast gene YLR284C,2.9
same,The level of expressed mRNA in the presence of chemical substance/The level of expressed mRNA in the absence of chemical substance,yeast gene YLR299W,1.3
same,The level of expressed mRNA in the presence of chemical substance/The level of expressed mRNA in the absence of chemical substance,yeast gene YLR300W,0.7
same,level of expressed mRNA in the presence/in the absence of chemical substance,yeast gene YLR304C,0.5
same,The level of expressed mRNA in the presence of chemical substance/The level of expressed mRNA in the absence of chemical substance,yeast gene YLR307W,1.1
same,The level of expressed mRNA in the presence of chemical substance/The level of expressed mRNA in the absence of chemical substance,yeast gene YLR348C,1.1
same,level of expressed mRNA in the presence/in the absence of chemical substance,yeast gene YLR354C,1.0
same,level of expressed mRNA in the presence/in the absence of chemical substance,yeast gene YLR372W,0.5
same,level of expressed mRNA in the presence/in the absence of chemical substance,yeast gene YML022W,0.5
same,The level of expressed mRNA in the presence of chemical substance/The level of expressed mRNA in the absence of chemical substance,yeast gene YML054C,1.1
same,The level of expressed mRNA in the presence of chemical substance/The level of expressed mRNA in the absence of chemical substance,yeast gene YML070W,1.2
same,The level of expressed mRNA in the presence of chemical substance/The level of expressed mRNA in the absence of chemical substance,yeast gene YML100W,1.0
same,The level of expressed mRNA in the presence of chemical substance/The level of expressed mRNA in the absence of chemical substance,yeast gene YMR008C,3.0
same,level of expressed mRNA in the presence/in the absence of chemical substance,yeast gene YMR011W,1.3
same,level of expressed mRNA in the presence/in the absence of chemical substance,yeast gene YMR015C,1.0
same,The level of expressed mRNA in the presence of chemical substance/The level of expressed mRNA in the absence of chemical substance,yeast gene YMR020W,2.3
same,level of expressed mRNA in the presence/in the absence of chemical substance,yeast gene YMR083W,0.9
same,The level of expressed mRNA in the presence of chemical substance/The level of expressed mRNA in the absence of chemical substance,yeast gene YMR105C,1.6
same,The level of expressed mRNA in the presence of chemical substance/The level of expressed mRNA in the absence of chemical substance,yeast gene YMR189W,1.0
same,level of expressed mRNA in the presence/in the absence of chemical substance,yeast gene YMR205C,0.6
same,level of expressed mRNA in the presence/in the absence of chemical substance,yeast gene YMR261C,0.7
same,The level of expressed mRNA in the presence of chemical substance/The level of expressed mRNA in the absence of chemical substance,yeast gene YMR271C,1.3
same,The level of expressed mRNA in the presence of chemical substance/The level of expressed mRNA in the absence of chemical substance,yeast gene YMR296C,0.8
same,level of expressed mRNA in the presence/in the absence of chemical substance,yeast gene YMR323W,1.1
same,The level of expressed mRNA in the presence of chemical substance/The level of expressed mRNA in the absence of chemical substance,yeast gene YNL012W,1.3
same,level of expressed mRNA in the presence/in the absence of chemical substance,yeast gene YNL025C,0.7
same,The level of expressed mRNA in the presence of chemical substance/The level of expressed mRNA in the absence of chemical substance,yeast gene YNL045W,1.1
same,The level of expressed mRNA in the presence of chemical substance/The level of expressed mRNA in the absence of chemical substance,yeast gene YNL104C,0.9
same,The level of expressed mRNA in the presence of chemical substance/The level of expressed mRNA in the absence of chemical substance,yeast gene YNL106C,1.1
same,The level of expressed mRNA in the presence of chemical substance/The level of expressed mRNA in the absence of chemical substance,yeast gene YNL169C,1.1
same,level of expressed mRNA in the presence/in the absence of chemical substance,yeast gene YNL192W,2.3
same,The level of expressed mRNA in the presence of chemical substance/The level of expressed mRNA in the absence of chemical substance,yeast gene YNL231C,3.1
same,The level of expressed mRNA in the presence of chemical substance/The level of expressed mRNA in the absence of chemical substance,yeast gene YNL322C,0.9
same,The level of expressed mRNA in the presence of chemical substance/The level of expressed mRNA in the absence of chemical substance,yeast gene YNL331C,1.7
same,The level of expressed mRNA in the presence of chemical substance/The level of expressed mRNA in the absence of chemical substance,yeast gene YNL332W,1.0
same,The level of expressed mRNA in the presence of chemical substance/The level of expressed mRNA in the absence of chemical substance,yeast gene YNR019W,2.4
same,The level of expressed mRNA in the presence of chemical substance/The level of expressed mRNA in the absence of chemical substance,yeast gene YNR033W,0.9
same,The level of expressed mRNA in the presence of chemical substance/The level of expressed mRNA in the absence of chemical substance,yeast gene YNR059W,2.6
same,The level of expressed mRNA in the presence of chemical substance/The level of expressed mRNA in the absence of chemical substance,yeast gene YOL058W,1.2
same,level of expressed mRNA in the presence/in the absence of chemical substance,yeast gene YOL086C,1.1
same,level of expressed mRNA in the presence/in the absence of chemical substance,yeast gene YOL108C,1.5
same,level of expressed mRNA in the presence/in the absence of chemical substance,yeast gene YOL116W,1.1
same,The level of expressed mRNA in the presence of chemical substance/The level of expressed mRNA in the absence of chemical substance,yeast gene YOL126C,1.6
same,The level of expressed mRNA in the presence of chemical substance/The level of expressed mRNA in the absence of chemical substance,yeast gene YOL153C,1.1
same,level of expressed mRNA in the presence/in the absence of chemical substance,yeast gene YOL156W,0.9
same,The level of expressed mRNA in the presence of chemical substance/The level of expressed mRNA in the absence of chemical substance,yeast gene YOL165C,1.6
same,level of expressed mRNA in the presence/in the absence of chemical substance,yeast gene YOR002W,0.9
same,level of expressed mRNA in the presence/in the absence of chemical substance,yeast gene YOR085W,0.9
same,The level of expressed mRNA in the presence of chemical substance/The level of expressed mRNA in the absence of chemical substance,yeast gene YOR099W,1.2
same,level of expressed mRNA in the presence/in the absence of chemical substance,yeast gene YOR103C,1.1
same,level of expressed mRNA in the presence/in the absence of chemical substance,yeast gene YOR108W,1.1
same,level of expressed mRNA in the presence/in the absence of chemical substance,yeast gene YOR128C,1.2
same,The level of expressed mRNA in the presence of chemical substance/The level of expressed mRNA in the absence of chemical substance,yeast gene YOR130C,1.5
same,level of expressed mRNA in the presence/in the absence of chemical substance,yeast gene YOR142W,0.9
same,level of expressed mRNA in the presence/in the absence of chemical substance,yeast gene YOR176W,1.2
same,level of expressed mRNA in the presence/in the absence of chemical substance,yeast gene YOR178C,1.0
same,level of expressed mRNA in the presence/in the absence of chemical substance,yeast gene YOR251C,0.9
same,The level of expressed mRNA in the presence of chemical substance/The level of expressed mRNA in the absence of chemical substance,yeast gene YOR336W,1.0
same,The level of expressed mRNA in the presence of chemical substance/The level of expressed mRNA in the absence of chemical substance,yeast gene YOR347C,1.7
same,level of expressed mRNA in the presence/in the absence of chemical substance,yeast gene YOR348C,0.9
same,The level of expressed mRNA in the presence of chemical substance/The level of expressed mRNA in the absence of chemical substance,yeast gene YPL017C,1.3
same,level of expressed mRNA in the presence/in the absence of chemical substance,yeast gene YPL028W,1.4
same,level of expressed mRNA in the presence/in the absence of chemical substance,yeast gene YPL057C,2.2
same,level of expressed mRNA in the presence/in the absence of chemical substance,yeast gene YPL135W,1.5
same,level of expressed mRNA in the presence/in the absence of chemical substance,yeast gene YPL148C,1.0
same,The level of expressed mRNA in the presence of chemical substance/The level of expressed mRNA in the absence of chemical substance,yeast gene YPR026W,0.9
same,level of expressed mRNA in the presence/in the absence of chemical substance,yeast gene YPR113W,1.2
same,level of expressed mRNA in the presence/in the absence of chemical substance,yeast gene YPR165W,2.3
same,The level of expressed mRNA in the presence of chemical substance/The level of expressed mRNA in the absence of chemical substance,yeast gene YPR167C,1.7
same,level of expressed mRNA in the presence/in the absence of chemical substance,yeast gene YPR183W,1.2
